Test results reported in ChEMBL document CHEMBL1130377 (J Med Chem, 1997).

molecular target: Melatonin receptor (Gallus gallus, UniProt P49288+P51050+P49285); test: Binding affinity against chicken brain melatonin receptors using 2-[125I]iodomelatonin as radioligand

Row | Structure (SMILES) | Log Ki
1 | COc1cc2ccccc2c2c1CC(NC(C)=O)CC2 (stereo not drawn) | -6.67
2 | CC(=O)NCCc1cccc2ccc(O)cc12 | -7.52
3 | COc1ccc2cccc(CCNC=O)c2c1 | -8.03
4 | CCCC(=O)NCCc1c[nH]c2cc(F)c(OC)cc12 | -9.85
5 | COc1ccc(-c2ccccc2)cc1CCNC(C)=O | -6.54
6 | COc1ccc2cccc3c2c1CC(NC(C)=O)C3 (stereo not drawn) | -7.46
7 | COc1ccc2cccc(CONC(C)=O)c2c1 | -8.77
8 | COc1ccc(OC)c(CCNC(=O)C(F)(F)F)c1 | -6.94
9 | CCC(=O)NCCc1c(OC)ccc2cc(C)ccc12 | -7.19
10 | COc1ccc(C)cc1CCNC(=O)C(F)(F)F | -6.64
11 | COc1ccc(C)cc1CCNC(C)=O | -6.71
12 | CC(=O)NCCc1c[nH]c2ccccc12 | -6.31
13 | CCC(=O)NCCc1cccc2ccc(OC)cc12 | -9.74
14 | COc1ccc2cccc(CCNC(=O)C3CC3)c2c1 | -7.71
15 | CCOc1ccc2ccccc2c1CCNC(=O)C(F)(F)F | -8.23
16 | COc1ccc2ccc(OC)c(CCNC(C)=O)c2c1 | -9.62
17 | COc1ccc2ccc(OC)c(CCNC(=O)C(F)(F)F)c2c1 | -9.41
18 | COc1ccc2ccccc2c1CCNC(=O)C(F)(F)F | -9.26
19 | COc1ccc(OC)c(CCNC(C)=O)c1 | -7.15

The remaining lines, values ahead:

Row | Log Ki | Structure (SMILES)
20 | -8.6 | COc1cc2c(CCNC(=O)C3CC3)c[nH]c2cc1F
21 | -8.97 | CCOc1ccc2ccccc2c1CCNC(=O)CC
22 | -8.45 | CCOc1ccc2ccccc2c1CCNC(C)=O
23 | -8.17 | CCCNC(=O)NCCc1c[nH]c2ccc(OC)cc12
24 | -7.25 | COc1ccc2ccccc2c1CONC(C)=O
25 | -5.72 | COc1cccc(CCNC(=O)C(F)(F)F)c1
26 | -10.53 | CCCC(=O)NCCc1cccc2ccc(OC)cc12
27 | -10.14 | CCC(=O)NCCc1c(OC)ccc2ccc(OC)cc12
28 | -8.94 | CCC(=O)NCCc1cc(Br)ccc1OC
29 | -9.92 | COc1ccc2cccc(CCNC(=O)CBr)c2c1
30 | -7.35 | CCCCC(=O)NCCc1cccc2ccc(OC)cc12
31 | -7.92 | CCC(=O)NCCc1cc(OC)cc2ccc(OC)cc12
32 | -6.62 | CCCCC(=O)NCCc1cccc2ccccc12
33 | -8.6 | COc1ccc2[nH]cc(CCNC(=O)C3CC3)c2c1
